In ChEMBL document CHEMBL1201862, “PubChem BioAssay data set” (2004):
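Tested at 5 concentrations; 48 h exposure; 96-well plates; endpoints linearly interpolated, else capped at highest concentration. GI50 is the concentration that inhibits growth by half.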 The source made the active and inactive calls. No stated cut-off is given here; in the data, active = GI50 up to about 1.1 µM and inactive = higher.

Experiments:
Experiment in all cases: NCI tumour cell line growth inhibition, 48 h
A498 = test system: A498
ACHN = test system: ACHN
UACC-62 = test system: UACC-62
CCRF-CEM = test system: CCRF-CEM
PC-3 = test system: PC-3
OVCAR-5 = test system: OVCAR-5
NCI-H226 = test system: NCI-H226
SK-MEL-5 = test system: SK-MEL-5
SN12C = test system: SN12C
MDA-MB-435 = test system: MDA-MB-435
MCF7 = test system: MCF7
UO-31 = test system: UO-31
HT-29 = test system: HT-29
RPMI-8226 = test system: RPMI-8226
HCT-116 = test system: HCT-116
SF-268 = test system: SF-268
TK-10 = test system: TK-10
SK-OV-3 = test system: SK-OV-3
NCI-H460 = test system: NCI-H460
Hs-578T = test system: Hs-578T

| SMILES | GI50 (A498) | GI50 (ACHN) | GI50 (UACC-62) | GI50 (CCRF-CEM) | GI50 (PC-3) | GI50 (OVCAR-5) | GI50 (NCI-H226) | GI50 (SK-MEL-5) | GI50 (SN12C) | GI50 (MDA-MB-435) | GI50 (MCF7) | GI50 (UO-31) | GI50 (HT-29) | GI50 (RPMI-8226) | GI50 (HCT-116) | GI50 (SF-268) | GI50 (TK-10) | GI50 (SK-OV-3) | GI50 (NCI-H460) | GI50 (Hs-578T) |
| --- | --- | --- | --- | --- | --- | --- | --- | --- | --- | --- | --- | --- | --- | --- | --- | --- | --- | --- | --- | --- |
| O=C(O)CCC(=O)c1ccc2sc3ccccc3c2c1 | 27.9 µM (inactive) | > 100 µM (inactive) | > 100 µM (inactive) | 0.225 µM (active) | > 100 µM (inactive) | > 100 µM (inactive) | > 100 µM (inactive) | > 100 µM (inactive) | > 100 µM (inactive) | > 100 µM (inactive) | > 100 µM (inactive) | > 100 µM (inactive) | > 100 µM (inactive) | > 100 µM (inactive) | > 100 µM (inactive) | > 100 µM (inactive) | 91.6 µM (inactive) | > 100 µM (inactive) | > 100 µM (inactive) | > 100 µM (inactive) |
| O=C1N[C@@H]2c3c(Br)sc(Br)c3C(=O)[C@@H]2N1 | 17.3 µM (inactive) | 4.02 µM (inactive) | 4.73 µM (inactive) | 0.678 µM (active) | 3.05 µM (inactive) | 17.2 µM (inactive) | 29.6 µM (inactive) | 9.29 µM (inactive) | 4.22 µM (inactive) | 2.1 µM (inactive) | 2.62 µM (inactive) | 3.53 µM (inactive) | 2.82 µM (inactive) | 3.05 µM (inactive) | 1.89 µM (inactive) | 3.33 µM (inactive) | 2.24 µM (inactive) | 14.1 µM (inactive) | 6.44 µM (inactive) | 8.28 µM (inactive) |
| CC1(C)Oc2ccc(Cl)cc2C12CC2 | 15.1 µM (inactive) | 16.3 µM (inactive) | 40.5 µM (inactive) | 22.7 µM (inactive) | 13.9 µM (inactive) | 17.4 µM (inactive) | 13.6 µM (inactive) | 18 µM (inactive) | 18.8 µM (inactive) | 15.5 µM (inactive) | 16.9 µM (inactive) | 16.9 µM (inactive) | 17.6 µM (inactive) | 16.1 µM (inactive) | 14.7 µM (inactive) | 16.6 µM (inactive) | 18.4 µM (inactive) | 21.7 µM (inactive) | 17.8 µM (inactive) | 24.4 µM (inactive) |
| COc1cc(/N=N/c2cccc(S(N)(=O)=O)c2)c2ccccc2c1N | 19.7 µM (inactive) | 15.5 µM (inactive) | 2.07 µM (inactive) | 8.17 µM (inactive) | 11.5 µM (inactive) | 17.5 µM (inactive) | 19.9 µM (inactive) | 1.8 µM (inactive) | 8.89 µM (inactive) | 2 µM (inactive) | 6.84 µM (inactive) | 15.3 µM (inactive) | 15.2 µM (inactive) | 16.3 µM (inactive) | 14.7 µM (inactive) | 15 µM (inactive) | 16.1 µM (inactive) | 15.6 µM (inactive) | 9.98 µM (inactive) | 2.67 µM (inactive) |
| O=C(C1OC1c1ccc(O)cc1)C12CC3CC(CC(C3)C1)C2 (stereo not given) | > 69.8 µM (inactive) | 42 µM (inactive) | 40.1 µM (inactive) | 5.92 µM (inactive) | 85.5 µM (inactive) | > 100 µM (inactive) | > 100 µM (inactive) | 61.7 µM (inactive) | 47.1 µM (inactive) | > 40.7 µM (inactive) | > 55.3 µM (inactive) | 32.1 µM (inactive) | > 100 µM (inactive) | 27 µM (inactive) | 41.5 µM (inactive) | > 87.1 µM (inactive) | 58.3 µM (inactive) | > 100 µM (inactive) | > 80.9 µM (inactive) | > 100 µM (inactive) |
| COC(=O)c1c2c(cc3c1CC1(Cc4ccc(C(C)=O)cc4C1)C3)CCC2 (stereo not given) | 31.2 µM (inactive) | 66.8 µM (inactive) | 35.7 µM (inactive) | 27.7 µM (inactive) | 19.5 µM (inactive) | > 100 µM (inactive) | 67.1 µM (inactive) | 18 µM (inactive) | 19.7 µM (inactive) | 6.92 µM (inactive) | 37.3 µM (inactive) | 52.4 µM (inactive) | 19.5 µM (inactive) | 24.7 µM (inactive) | 36.3 µM (inactive) | 83.2 µM (inactive) | > 100 µM (inactive) | 63.2 µM (inactive) | 42.2 µM (inactive) | 28.4 µM (inactive) |
| CC1(c2cccs2)CC(c2cccs2)=C(C#N)C(=C(C#N)C#N)N1 (stereo not given) | 18.7 µM (inactive) | 17.5 µM (inactive) | 15 µM (inactive) | 0.519 µM (active) | 15.4 µM (inactive) | 21.5 µM (inactive) | 22.3 µM (inactive) | 14.6 µM (inactive) | 18.7 µM (inactive) | 17.4 µM (inactive) | 18.5 µM (inactive) | 18.9 µM (inactive) | 17.9 µM (inactive) | 17.5 µM (inactive) | 17.3 µM (inactive) | 18.2 µM (inactive) | 21 µM (inactive) | 21.6 µM (inactive) | 20.2 µM (inactive) | 30.9 µM (inactive) |
| COc1nc2nccnc2c(=O)n1C | > 10 µM (inactive) | > 10 µM (inactive) | > 10 µM (inactive) | > 10 µM (inactive) | > 10 µM (inactive) | > 10 µM (inactive) | > 10 µM (inactive) | > 10 µM (inactive) | > 10 µM (inactive) | > 10 µM (inactive) | > 10 µM (inactive) | > 10 µM (inactive) | > 10 µM (inactive) | > 10 µM (inactive) | > 10 µM (inactive) | > 10 µM (inactive) | > 10 µM (inactive) | > 10 µM (inactive) | > 10 µM (inactive) | > 10 µM (inactive) |
| COc1cc2c(cc1O)[C@]1(Cc3ccc4c(c3C1=O)OCO4)N(C)CC2 | > 100 µM (inactive) | > 100 µM (inactive) | > 100 µM (inactive) | > 100 µM (inactive) | > 100 µM (inactive) | > 100 µM (inactive) | > 100 µM (inactive) | > 100 µM (inactive) | > 100 µM (inactive) | > 100 µM (inactive) | > 100 µM (inactive) | > 100 µM (inactive) | > 100 µM (inactive) | > 100 µM (inactive) | > 100 µM (inactive) | > 100 µM (inactive) | > 100 µM (inactive) | > 100 µM (inactive) | > 100 µM (inactive) | > 100 µM (inactive) |
| COc1cc2cc(C(=O)N3CC(CCl)c4c3cc(N)c3ccccc43)[nH]c2c(OC)c1OC (stereo not given) | < 0.01 µM (active) | < 0.01 µM (active) | < 0.01 µM (active) | < 0.01 µM (active) | < 0.01 µM (active) | < 0.01 µM (active) | < 0.01 µM (active) | < 0.01 µM (active) | < 0.01 µM (active) | < 0.01 µM (active) | < 0.01 µM (active) | < 0.01 µM (active) | < 0.01 µM (active) | < 0.01 µM (active) | < 0.01 µM (active) | < 0.01 µM (active) | < 0.01 µM (active) | < 0.01 µM (active) | < 0.01 µM (active) | < 0.01 µM (active) |
